The values below are quoted from earlier work in patent US20120108429A1, “SAFENED AND EFFICACIOUS WEED CONTROL PARTICLE” (The Andersons, Inc., priority 2010, published 2012).

For the data set, the system named is pentas and hemerocallis. To be noted: application of the herbicide.

Take `C#CCN1C(=O)COc2cc(F)c(N3C(=O)C4=C(CCCC4)C3=O)cc21` [flumioxazin]: the “effect on growth of ornamental plants” value is on record as “inhibited from properly growing”.
